Measured values taken from publication PMC9804781, “Identification of a Novel Pseudo‐Natural Product Type IV IDO1 Inhibitor Chemotype” (Angewandte Chemie (International Ed. in English), 2022).
Like-named read-outs stand apart in the source and are kept apart here.

Assays:
Format in all cases: cell-based
Kyn levels in HeLa cells = experiment: Manual Kyn assay in HeLa cells (p-DMAB detection); settings: IFN-γ, L-Trp, compounds 48 h, p-DMAB, mean n=3 ±SD, read-out: Kyn Assay IC50
Protocol: Mammalian cell lines were maintained at 37°C and 5% CO2 in a humidified atmosphere and sub-cultivated twice a week. All cell lines were tested regularly for mycoplasma contamination and were always free of mycoplasma. BxPC-3 cells (DSMZ#760) were grown in RPMI-1640 medium supplemented with 10% FBS, 2 mM L-glutamine, 1 mM sodium pyruvate, 4.5 g/L glucose, 10 mM HEPES and 1.5 g/L NaHCO3. HeLa cells (DSMZ#57) were cultivated in DMEM supplemented with 10% FBS, 4.5 g/L glucose, 4 mM L-glutamine 1 mM sodium pyruvate, 1% non-essential amino acids, 3.7 g/L NaHCO3. SKOV-3 cells (ATCC#HTB-77) were maintained in modified McCoy’s 5A medium supplemented with 10% FBS, 1.5 mM L-glutamine and 2.2 g/L NaHCO3. […]
For manual testing, BxPC-3, HeLa or SKOV-3 cells (20,000 cells/well, 5,000 cells/well or 6,250 cells/well, respectively) were seeded in 96-well plates (BxPC-3 and HeLa) or 384-well plates (SKOV-3) in medium without phenol red. After 24 h, the IDO1 pathway was induced by addition of 50 ng/mL (BxPC-3 and HeLa) or 17.6 ng/mL IFN-γ (SKOV-3) and 380 µM (BxPC-3), 164.15 µM (HeLa) or 450 µM L-Trp (SKOV-3) with simultaneous treatment with the compounds at the indicated concentrations followed by incubation for 48 h. For the hemin competition assay, hemin was added together with IFN-γ, L-Trp and the compounds. Subsequently, trichloroacetic acid was added to a final concentration of 7% (v/v), the plates were incubated for 15 min at room […]
temperature and centrifuged for 10 min at 1800 x g. Afterwards, an equal volume of freshly prepared 2% (w/v) p-DMAB in glacial acetic acid (Ehrlich reagent) was added prior to measuring the absorbance at 492 nm and 650 nm on the Spark® Multimode Microplate Reader (Tecan, AT).
To determine the Kyn levels, the absorbance of the Kyn-p-DMAB adduct A492 was subtracted by the background absorbance A650 and normalized to the DMSO control. Data analysis was performed using a non-linear regression curve fit and GraphPad Prism 9.0 (GraphPad Software, Inc, US) to generate dose-response curves and obtain IC50 values. […]
Subsequently, 10 mM ascorbic acid, 10 μM methylene blue, 2 mM L-Trp and 100 μg/mL catalase were added and samples were incubated for 60 min at room temperature or 37°C. […]

[1] = system: Kyn levels in BxPC-3 cells; experiment: Automated (high-throughput) Kyn assay in BxPC-3 cells (Kyn sensor); settings: Homo sapiens, BXPC-3; footnote e: value from automated Kyn Assay
Protocol: Mammalian cell lines were maintained at 37°C and 5% CO2 in a humidified atmosphere and sub-cultivated twice a week. All cell lines were tested regularly for mycoplasma contamination and were always free of mycoplasma. BxPC-3 cells (DSMZ#760) were grown in RPMI-1640 medium supplemented with 10% FBS, 2 mM L-glutamine, 1 mM sodium pyruvate, 4.5 g/L glucose, 10 mM […]
HEPES and 1.5 g/L NaHCO3. […]
High-throughput Kyn assay
Automated screening for modulators of Kyn levels in BxPC-3 cells was performed as published earlier.[2] Briefly, BxPC-3 cells (1,000 cells/well) were seeded in black 1536-well plates prior to incubation for 24 h and subsequent treatment with compounds, 380 µM L-Trp and 50 ng/mL IFN-γ for 48 h. Afterwards, trichloroacetic acid was added to a final concentration of 7% (v/v), the plates were incubated for 10 min at 37°C and centrifuged for 10 min at 1620 x g. Kyn was detected by addition of 17.5 µM Kyn sensor[14] in assay buffer (excitation: 535 nm, emission: […]

[2] = system: L-Trp uptake in BxPC-3 cells; experiment: Trp uptake assay in BxPC-3 cells (HPLC-MS/MS); settings: BxPC-3 starved for L-Trp 72 h, ±IFN-γ; 5 mM L-Leu, 1 mM 1-MT, 5 µM compound
Protocol: GraphPad Prism 9.0 (GraphPad Software, Inc, US) to generate dose-response curves and obtain […]
IDO1 promoter reporter gene assay
HEK293T cells (25,000 cells/well) were reverse-transfected with pXPG-IDO1[16] (4 µg/96-well plate, kindly provided by Gina M. Doody, Leeds, UK) and pRL-TK (300 ng/96-well plate, Promega, US) using Lipofectamine™ 2000 (Invitrogen, USA) pri or to incubation for 24 h. Afterwards, cells were treated with 50 ng/mL IFN-γ and the compounds for 48 h. Luminescence generated by the Fluc reporter and the control reporter Rluc was measured using the Dual-Glo ® Luciferase Assay System (Promega, US) on the Spark® Multimode Microplate Reader (Tecan, AT). To determine the IDO1 promoter activity, Fluc signals were divided by Rluc signals and normalized to the values of the DMSO control. Data analysis was performed using a non-linear regression curve fit and […]
BxPC-3 cells (30,000 cells/well) were seeded in 96-well plates in Trp-free RPMI 1640 medium and incubated for 48 h prior addition of 50 ng/mL IFN-γ. Trp starvation was continued for another 24 h. Afterwards, medium was exchanged for Trp-free medium containing the control inhibitors 5 mM L-Leu (inhibitor of system-L amino acid transporters (LAT)), 1 mM 1-methyl-L-tryptophan (inhibitor of tryptophanyl-tRNA synthetase (TrpRS)) and compounds and cells were incubated for 30 min. Subsequently, 50 µM L-Trp was added and samples were incubated for another 30 min.
The supernatant was transferred to a new plate, trichloroacetic acid was added to a final concentration of 7% (v/v) and plates were incubated for 15 min at room temperature. Samples were centrifuged for 10 min at 1800 x g and L-Trp was quantified by HPLC-MS/MS using the LTQ Velos Pro and Dionex HPLC (Thermo Fisher Scientific, US). Data analysis was performed with Xcalibur™ (Thermo Fisher Scientific, US) and repres ented using GraphPad Prism 9.0 (GraphPad […]
RNA purification and RT-qPCR
HeLa cells (250,000 cells/well) were seeded in 6-well plates and incubated for 24 h prior addition of 50 ng/mL IFN-γ and compounds. […]

Structure (SMILES)	IC50 (Kyn levels in HeLa cells; Homo sapiens, HeLa, 48 h)	further results
CCOC(=O)C1=CC[C@@](C(=O)OC)(c2cc3ccccc3n2C)N(S(=O)(=O)c2ccccc2[N+](=O)[O-])[C@H]1C(=O)OCC [3a^a]	> 10000 nM	
CCOC(=O)C1=CC[C@H](c2cc3ccccc3n2C)N(S(=O)(=O)c2ccc(C)cc2)[C@@H]1C(=O)OC(C)(C)C [3e^e]		IC50 [1]: 260 ± 50 nM
Cn1cc(C[C@H](N)C(=O)O)c2ccccc21 [Compound 1-MT, 1-methyl-L-tryptophan]		uptake (import) of L-Trp [2]: inhibit the uptake
CCOC(=O)C1=CC[C@H](c2cc3ccccc3n2C)N(S(=O)(=O)c2ccccc2[N+](=O)[O-])[C@@H]1C(=O)OC(C)(C)C [Compound 3c]		IC50 (Kyn levels in HeLa cells; listed as 3c^b): 480 ± 60 nM; IC50 (Kyn levels in HeLa cells): 1040 ± 80 nM
CCOC(=O)C1=CC[C@](C(=O)OC)(c2cc3ccccc3n2C)N(S(C)(=O)=O)[C@@H]1C(=O)OC(C)(C)C [Compound 3f]	80 ± 10 nM	IC50 (Kyn levels in HeLa cells; listed as 3f^bc): 90 ± 10 nM
CCOC(=O)C1=CC[C@](C(=O)OC)(c2cc3ccccc3n2C)N(S(=O)(=O)c2ccccc2)[C@@H]1C(=O)OC(C)(C)C [Compound 3g]	80 ± 10 nM	
CCOC(=O)C1=CC[C@](C(=O)OC)(c2cc3ccccc3n2C)N(S(=O)(=O)c2ccc(Br)cc2)[C@@H]1C(=O)OC(C)(C)C [Compound 3h]	430 ± 150 nM	
CCOC(=O)C1=CC[C@](C(=O)OC)(c2cc3ccccc3n2C)N(S(=O)(=O)c2cccc(C(F)(F)F)c2)[C@@H]1C(=O)OC(C)(C)C [Compound 3i]	1540 ± 410 nM	
CCOC(=O)[C@@H]1C(C(=O)OC(C)(C)C)=CC[C@](C(=O)OC)(c2cc3ccccc3n2C)N1S(=O)(=O)c1ccc(C)cc1 [Compound 3j]	760 ± 40 nM	
CCOC(=O)[C@@H]1C(C(=O)OC(C)(C)C)=CC[C@H](c2cc3ccccc3n2C)N1S(=O)(=O)c1ccc(C)cc1 [Compound 3k]	1630 ± 160 nM	
COC(=O)[C@]1(c2cc3ccccc3n2C)CC=C(C(=O)OCc2ccccc2)[C@@H](C(=O)OC(C)(C)C)N1S(=O)(=O)c1ccccc1[N+](=O)[O-] [Compound 3l]		IC50 (Kyn levels in HeLa cells; listed as 3l^a): 2880 ± 130 nM; IC50 (Kyn levels in HeLa cells): 1390 ± 90 nM
CCOC(=O)[C@@H]1C(C(=O)OC(C)(C)C)=CC[C@](C(=O)OC)(c2cc3ccccc3n2C)N1S(=O)(=O)c1ccccc1[N+](=O)[O-] [Compound 3m]	2460 ± 290 nM	
CCOC(=O)C1=CC[C@](C(=O)OC)(c2cc3ccccc3n2C)N(S(=O)(=O)c2ccccc2[N+](=O)[O-])[C@@H]1C(=O)OCc1ccccc1 [Compound 3n]	7520 ± 800 nM	
COC(=O)[C@]1(c2cc3ccccc3n2C)CC=C(C(=O)OC(C)(C)C)[C@@H](C(=O)OC(C)(C)C)N1S(=O)(=O)c1ccccc1[N+](=O)[O-] [Compound 3o]		IC50 (Kyn levels in HeLa cells; listed as 3o^a): 820 ± 700 nM; IC50 (Kyn levels in HeLa cells; listed as 3o^b): 160 ± 50 nM; IC50 (Kyn levels in HeLa cells): 650 ± 80 nM
COC(=O)[C@]1(c2cc3ccccc3n2C)CC=C(C(=O)OCc2ccccc2)[C@@H](C(=O)OC(C)(C)C)N1S(=O)(=O)c1ccc(C)cc1 [Compound 3p]	1650 ± 230 nM	
CCOC(=O)C1=CC[C@](C(=O)OC)(c2cc3ccccc3n2C)N(S(=O)(=O)c2ccc(F)cc2)[C@@H]1C(=O)OC(C)(C)C [Compound 3q]	110 ± 20 nM	
Cn1c([C@H]2CC=C(C(=O)OCc3ccccc3)[C@@H](C(=O)OC(C)(C)C)N2S(=O)(=O)c2ccccc2[N+](=O)[O-])cc2ccccc21 [Compound 3r]	890 ± 190 nM	
CC(C)C[C@H](N)C(=O)O [L-Leu, L-leucine]		uptake (import) of L-Trp [2]: inhibit the uptake
